{"source": "patent US20120003270A1", "about": "“6-SUBSTITUTED ISOFLAVONOID COMPOUNDS AND USES THEREOF” (priority 2008, published 2012)", "key": {"[1]": {"tested_on": "NFκB", "assay": "NFκB promoter activity in transfected THP-1 cells (beta-lactamase reporter)", "assay_type": "cell-based, human", "conditions": "for Inflammatory index: TNFα 7.5 ng/ml, 5 h", "procedure": "The assay utilizes a genetically modified THP-1 cell line and GeneBLAzer® beta-lactamase technology (Invitrogen Corp). The human THP-1 monocyte/macrophages contain a stably-transfected beta-lactamase reporter gene under control of the NFkB response element. They respond to stimulation with TNFα, which leads to activation of the NFkB signaling pathway. Co-incubation of cells with TNFα and test material allows quantitative determination of the ability of test material to inhibit TNFα-stimulated beta-lactamase production. An inflammatory index was calculated as the ratio of beta-lactamase product to beta-lactamase substrate.\nIn brief, genetically modified THP-1 cells were seeded into wells of a 96-well plate (50×10^3 cells/well) in the presence of RPMI 1640 medium (70 μl). TNFα was added to each well (10 μl) to give a final concentration of 7.5 ng/ml. Dialyzed bovine serum was added (10 μl). Test compounds were dissolved in DMSO (10 μL) (5 wells). Each plate contained a no-cell control (4 wells), a no-serum control (4 wells) and two serum controls. Plates were incubated for 5 h at 37° C. to allow for NFkB-stimulated beta-lactamase production. LiveBLAzer™ FRET B/G Substrate (CCF4-AM) substrate was then added to the assay. CCF4-AM is a Förster resonance energy transfer (FRET) based substrate for beta-lactamase developed by Invitrogen Corp. Once CCFA-AM enters a cell, it is converted to negatively charged CCF4 by endogenous esterases. Excitation of this substrate at 409 nm leads to efficient FRET between the coumarin and fluorescein moieties, resulting in a green fluorescence detectable at 530 nm. The presence of beta-lactamase leads to cleavage of CCF4 and results in a loss of FRET, resulting in a robust blue fluorescent signal detectable at 460 nm. Thus, activity of beta-lactamase (a marker of NFkB-promoter activity) is measured as a product to substrate ratio (blue/green fluorescence ratio: 460 nm/530 nm)."}, "[2]": {"tested_on": "eNOS", "assay": "eNOS mRNA expression in HCAECs (real-time PCR)", "assay_type": "cell-based, human", "conditions": "10 μM, 24 hr; for Average increase in the expression of eNOS: average of experiments", "procedure": "HCAECs were grown as described above. Because cell viability was less than 100% at 30 and 100 μM, eNOS experiments were conducted at one concentration (10 μM). After incubation, total RNA was extracted using TRI reagent (Sigma, St Louis, Mo., USA), following the manufacturer's protocol. RNA was quantitated and normalized to 100 ng/μl using the SYBR Green II assay (Molecular Probes, Eugene, Oreg., USA) before being reverse transcribed using iScript (Bio-Rad, Hercules, Calif., USA). eNOS (sense 5′-CCATCTACAGCTTTCCGGCGC-3′ and antisense 5′-CTCTGGGGTGGCCTTCAGCA-3′) and 18S (sense 5′-CGGCTACCACATCCAAGGAA-3′ and antisense 5′-GCT GGA ATT ACC GCG GCT-3′) mRNA levels were determined by real-time PCR using iQ SYBR Green Supermix (Bio-Rad) in an iCycler iQ RealTime thermocyler detection system (Bio-Rad Laboratories). The cycling parameters were 95° C. for 30 seconds, 62° C. for 30 seconds, and 72° C. for 30 seconds for 40 cycles, and real-time data was collected at each cycle. There were six replicates."}, "[3]": {"tested_on": "PMA-induced ear swelling", "assay": "Murine ear inflammation assay, PMA", "assay_type": "in vivo, mouse", "conditions": "25 mg/kg i/p; for Change in ear thickness (mean ± SD, ×0.01 mm): 5 hr after PMA", "procedure": "Groups of 5-6 female BALB/c mice (ARC, WA, Australia), weighing 15-21 g were injected intraperitoneally (i/p) with selected compounds of the formula (I) at 25 mg/kg delivered in polyethylene glycol (PEG) 400: phosphate buffered saline (PBS) 1:1 or ethanol: propanediol:PBS 4:9:7 either 30 min prior to or immediately before the inflammogen was applied to the ears. Mice were anaesthetised using isoflurane and baseline thickness of both ears was measured using a spring micrometer. Each mouse received a total of […] of either AA in ethanol (50 mg/ml or 200 mg/ml) or PMA in either ethanol or acetone (0.2 mg/ml) applied to the inner and outer surfaces of each pinna (i.e. 0.5 mg or 2 mg AA or 2 μg PMA per ear). Mice were anaesthetised again to re-measure the ears at 1 hr post-AA application and 5 hr after PMA. The difference in ear swelling pre- and post-application of inflammogen for each ear was calculated, and the average for the two ears of each mouse taken. The difference in mean swelling of each test group compared to the group given vehicle alone was calculated using a general ANOVA using Dunnett's Multiple Comparison test when multiple compounds were tested in the one experiment or a two-tailed unpaired t-test when only one compound was tested (Prism 4, Graphpad Software)."}, "[4]": {"tested_on": "TXA2", "assay": "TXA2 synthesis in RA-stimulated U937 cells", "assay_type": "cell-based, human", "conditions": "A23187 0.5 μM, 30 min", "procedure": "U937 cells were thawed and resuspended in RPMI and 10% FCS at 2×10^5 cells per ml. The cells were incubated in 5% CO2 at 37° C. and expanded in growing culture to at least 6.4×10^7 total cells. The cells were then resuspended in fresh medium and cultured with 5 μM retinoic acid (RA) at 2×10^5 cells per ml for a further 3 days (72 h). RA treated cells were washed 2× in serum-free RPMI and resuspended in serum-free medium at 5×10^6 cells per ml. The cells were aliquotted into Teflon tubes at 1 ml per tube. Working stock solutions of compounds (1) and (3) were prepared at 0.1 mM, 1 mM and 10 mM as described above. For each working dilution, 10 μl was added to 1 ml cells to achieve a final concentration of 0 (DMSO alone), 1, 10, and 100 μM for each test compound. Cells were incubated in triplicate with each concentration of test compound for 15 min at 37° C. After 15 min pre-incubation, each 1 ml tube of cells received 5 μl of a […] solution of the calcium ionophore A23187 (to achieve 0.5 μM A23187). Incubation at 37° C. was continued for a further 30 min. After incubation, supernatants were collected by centrifugation at 2000 rpm for 10 min and stored at −20° C. until required for assay."}, "[5]": {"tested_on": "PGE2", "assay": "PGE2 synthesis in RAW 264.7 (ELISA)", "assay_type": "cell-based, mouse", "conditions": "LPS 50 ng/ml, 16 hrs", "procedure": "The mouse macrophage cell line RAW 264.7 was cultured in DMEM supplemented with foetal calf serum (FCS), 2 mM glutamine and 50 U/ml penicillin/streptomycin. Cells were treated with either test compounds (in 0.025% DMSO) or vehicle alone, and added one hour before 50 ng/ml LPS. After incubation for 16 hrs, culture media was collected for PGE2 or TXB2 measurement by ELISA (Cayman Chemical), and TNFα measurement using an ELISA (Becton Dickinson)."}}, "data": [{"smiles": "O=C(O)C1CCCN1Cc1cc2c(cc1O)OCC(c1ccc(O)cc1)=C2", "note": "(stereo not shown) [Compound (3)]", "values": [{"measurement": "Inflammatory index", "setting": "[1]; 10 μM, vehicle 8.92 ± 0.22", "value": "8.88 ± 0.05"}, {"measurement": "Inflammatory index", "setting": "[1]; 30 μM, vehicle 11.56 ± 0.49", "value": "11.45 ± 0.86"}, {"measurement": "Inflammatory index", "setting": "[1]; 100 μM, vehicle 9.48 ± 0.14", "value": "8.59 ± 0.24"}, {"measurement": "Average increase in the expression of eNOS", "setting": "[2]", "value": 325, "unit": "%"}, {"measurement": "Increase in expression of eNOS mRNA relative to control cells", "setting": "[2]; EXPT 1", "value": "372 ± 138% (0.00001)"}, {"measurement": "Increase in expression of eNOS mRNA relative to control cells", "setting": "[2]; EXPT 2", "value": "277 ± 212 (0.002)"}, {"measurement": "% Change compared with vehicle", "setting": "[3]", "value": 0, "unit": "%"}, {"measurement": "Change in ear thickness (mean ± SD, ×0.01 mm)", "setting": "[3]", "value": "37.9 ± 2.6", "unit": "×0.01 mm"}, {"measurement": "TXB2", "setting": "[4]; 1 μM", "value": "18.434 ± 0.367", "unit": "pg"}, {"measurement": "TXB2", "setting": "[4]; 10 μM", "value": "26.276 ± 9.76", "unit": "pg"}, {"measurement": "TXB2", "setting": "[4]; 100 μM", "value": "12.668 ± 3.506", "unit": "pg"}, {"measurement": "PGE2", "setting": "[5]; 1 μM", "value": "2890.02 ± 320.91", "unit": "pg/mL"}, {"measurement": "PGE2", "setting": "[5]; 10 μM", "value": "2031.43 ± 261.59", "unit": "pg/mL"}]}, {"smiles": "CN(C)Cc1cc2c(cc1O)OCC(c1ccc(O)cc1)=C2", "note": "[Compound (1)]", "values": [{"measurement": "Inflammatory index", "setting": "[1]; 10 μM, vehicle 8.92 ± 0.22", "value": "9.12 ± 0.26"}, {"measurement": "Inflammatory index", "setting": "[1]; 30 μM, vehicle 11.56 ± 0.49", "value": "10.05 ± 0.36"}, {"measurement": "Inflammatory index", "setting": "[1]; 100 μM, vehicle 9.48 ± 0.14", "value": "2.75 ± 0.11"}, {"measurement": "Effect on promoter activity of NFκB (in words)", "setting": "[1]; THP-1 cells, TNFα-stimulated", "value": "significantly reduced the promoter activity of NFκB at 10 μM and 100 μM"}, {"measurement": "Average increase in the expression of eNOS", "setting": "[2]", "value": 45, "unit": "%"}, {"measurement": "Increase in expression of eNOS mRNA relative to control cells", "setting": "[2]; EXPT 1", "value": "52 ± 25% (0.0001)"}, {"measurement": "Increase in expression of eNOS mRNA relative to control cells", "setting": "[2]; EXPT 2", "value": "53 ± 49 (0.009)"}, {"measurement": "Increase in expression of eNOS mRNA relative to control cells", "setting": "[2]; EXPT 3", "value": "30 ± 30 (0.014)"}, {"measurement": "% Change compared with vehicle", "setting": "[3]", "value": "−12.3", "unit": "%"}, {"measurement": "Change in ear thickness (mean ± SD, ×0.01 mm)", "setting": "[3]", "value": "28.9 ± 3.071", "unit": "×0.01 mm"}, {"measurement": "TXB2", "setting": "[4]; 1 μM", "value": "35.833 ± 1.866", "unit": "pg"}, {"measurement": "TXB2", "setting": "[4]; 10 μM", "value": "41.697 ± 2.275", "unit": "pg"}, {"measurement": "TXB2", "setting": "[4]; 100 μM", "value": "21.708 ± 5.439", "unit": "pg"}, {"measurement": "PGE2", "setting": "[5]; 1 μM", "value": "2601.37 ± 153.53", "unit": "pg/mL"}, {"measurement": "PGE2", "setting": "[5]; 10 μM", "value": "847.96 ± 144.83", "unit": "pg/mL"}]}]}
